Measured values as given in EP4800015A1, “AZABICYCLO DERIVATIVE AND PREPARATION METHOD THEREFOR, AND USE” (Zhejiang Hisun Pharmaceutical Co., Ltd., priority 2023, dated 2025).
Where two headings read alike, the source gives them in different places.

Molecular target: T1, recombinant human WRN (Homo sapiens, UniProt Q14191)
T1 construct: purchased BPS 101264
Test: Inhibition of WRN enzyme activity (ATPase), ADP-Glo Kinase Assay
Format: biochemical
Details: WRN protein 5 nM, Flap 0.1 nM, ATP 30 µM
Text: The following method was used to determine the degree of inhibition of recombinant human WRN ATPase activity by the compounds of the present disclosure in vitro. In this method, ADP-Glo™ Kinase Assay kit (catalog No. V9102) from Promega was used. Detailed experimental procedures can be found in the kit manual.
The experimental procedure was briefly described as follows: test compounds were first dissolved in DMSO to prepare stock solutions, followed by serial dilution using reaction buffer (30 mM Tris, pH 7.5, 2 mM MgCl2, 50 mM NaCl, 0.02% BSA, 0.1% Pluronic F127), with final concentrations of test compounds in the reaction system ranging from 1000 nM to 0.004 nM; WRN protein (purchased from BPS, catalog No. 101264), substrate 5-flap oligonucleotide (Flap26) (synthesized by Shanghai Generay Biotech Co., Ltd., sequence 5'-[…]-3'), and ATP working solution (from ADP-Glo™ Kinase Assay kit component V915A) were prepared using reaction buffer. Reactions were performed in 384-well microplates. At first the compounds and recombinant human WRN protein (final concentration 5 nM) were added to the wells and the plate was incubated at room temperature for 15 minutes, then Flap solution (final concentration 0.1 nM) and ATP solution (final concentration 30 µM) were added to the reaction solution and the plate was incubated at room temperature for 10 minutes. Subsequently, 5 µL of ADP-Glo Reagent was added to the reaction system and incubated at room temperature for 40 minutes. Then 10 µL of Kinase Detection Reagent was added to the reaction system and incubated at room temperature for 30 minutes. After the incubation was completed, chemiluminescence intensity values of each well were measured using a microplate reader in luminescence mode. The percentage inhibition of the compounds at each concentration was calculated by comparison with the luminescence intensity values of the control group (0.1% DMSO), and IC50 values of compounds were obtained by nonlinear regression analysis of compound concentration logarithm-inhibition rate using GraphPad Prism 9 software, as shown in Table 1.
The IC50 value results of the compounds of the present disclosure are expressed as AA and A, respectively as follows: "AA" indicates IC50 ≤ 1 nM; "A" indicates 1 nM < IC50 ≤ 100 nM. Table 1 IC50 of the compounds of the present disclosure for inhibiting WRN enzyme activity (ATPase)

T1 sequence (Q14191 whole entry): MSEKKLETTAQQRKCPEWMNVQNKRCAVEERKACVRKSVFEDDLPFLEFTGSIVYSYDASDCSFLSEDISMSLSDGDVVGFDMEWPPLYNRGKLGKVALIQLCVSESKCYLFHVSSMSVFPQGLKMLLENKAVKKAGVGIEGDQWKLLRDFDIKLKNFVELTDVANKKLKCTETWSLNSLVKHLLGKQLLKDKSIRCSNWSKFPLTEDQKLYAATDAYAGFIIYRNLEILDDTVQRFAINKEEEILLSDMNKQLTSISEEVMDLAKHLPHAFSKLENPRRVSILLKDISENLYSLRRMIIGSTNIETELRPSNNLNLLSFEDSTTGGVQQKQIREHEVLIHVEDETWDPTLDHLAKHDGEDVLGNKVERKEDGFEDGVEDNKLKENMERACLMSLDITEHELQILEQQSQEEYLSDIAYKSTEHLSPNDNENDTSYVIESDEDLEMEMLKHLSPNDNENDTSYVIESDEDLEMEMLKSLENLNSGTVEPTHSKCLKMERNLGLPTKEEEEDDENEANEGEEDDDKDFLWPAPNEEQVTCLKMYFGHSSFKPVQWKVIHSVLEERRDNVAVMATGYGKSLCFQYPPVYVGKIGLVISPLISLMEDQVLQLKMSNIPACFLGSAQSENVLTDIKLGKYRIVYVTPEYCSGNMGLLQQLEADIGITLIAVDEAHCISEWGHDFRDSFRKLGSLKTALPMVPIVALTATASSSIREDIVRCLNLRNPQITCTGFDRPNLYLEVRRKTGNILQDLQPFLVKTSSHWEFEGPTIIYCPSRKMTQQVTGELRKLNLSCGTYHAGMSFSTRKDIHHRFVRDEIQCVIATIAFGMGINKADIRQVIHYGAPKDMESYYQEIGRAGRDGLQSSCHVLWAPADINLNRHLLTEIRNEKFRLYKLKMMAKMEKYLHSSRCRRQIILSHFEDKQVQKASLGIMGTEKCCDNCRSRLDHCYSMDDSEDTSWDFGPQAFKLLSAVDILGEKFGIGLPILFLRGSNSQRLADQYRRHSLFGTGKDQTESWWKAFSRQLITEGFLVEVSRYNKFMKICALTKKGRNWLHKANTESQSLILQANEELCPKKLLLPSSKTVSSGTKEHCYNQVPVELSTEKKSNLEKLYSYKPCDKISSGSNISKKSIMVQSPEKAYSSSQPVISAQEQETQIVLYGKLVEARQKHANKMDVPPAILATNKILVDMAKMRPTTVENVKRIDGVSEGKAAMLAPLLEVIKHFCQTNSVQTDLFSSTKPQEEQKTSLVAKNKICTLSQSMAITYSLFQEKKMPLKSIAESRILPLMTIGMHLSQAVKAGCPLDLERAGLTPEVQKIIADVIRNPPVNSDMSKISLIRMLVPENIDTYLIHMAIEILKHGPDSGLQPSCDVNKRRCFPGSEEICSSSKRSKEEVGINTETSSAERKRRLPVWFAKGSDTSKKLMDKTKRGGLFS

Structure (SMILES)	IC50	IC50 (read-out: IC50)
CCc1c(N2CCN(C(=O)c3ncccc3O)CC2)c(=O)n2nc(C3=CC4COCC4C3)nc2n1CC(=O)Nc1ccc(S(F)(F)(F)(F)F)cc1 (centres unmarked) [Example 187, 2-(5-ethyl-6-(4-(3-hydroxypicolinoyl)piperazin-1-yl)-7-oxo-2-(3,3a,4,6a-tetrahydro-1H-cyclopenta[c]furan-5-yl)-[1,2,4]triazolo[1,5-a]pyrimidin-4(7H)-yl)-N-(4-(pentafluoro-λ^6-sulfaneyl)phenyl) acetamide]	0.001 to 0.1 µM	
CCc1c(N2CCN(C(=O)c3ncnc(C)c3O)CC2)c(=O)n2nc(-c3ccc4sc(C)nc4c3)nc2n1CC(=O)Nc1ccc(C(F)(F)F)cc1Cl [Example 110, N-(2-chloro-4-(trifluoromethyl)phenyl)-2-(5-ethyl-6-(4-(5-hydroxy-6-methylpyrimidine-4-carbonyl)piperazin-1-yl)-2-(2-methylbenzo[d]thiazol-5-yl)-7-oxo-[1,2,4]triazolo[1,5-a]pyrimidin-4(7H)-yl)acetamide]		0.001 to 0.1 µM
CCc1c(N2CCN(C(=O)c3ncnc(C)c3O)CC2)c(=O)n2nc(C3=CC4CN(C(C)=O)CC4C3)nc2n1CC(=O)Nc1ccc(C(F)(F)F)cc1Cl (centres unmarked) [Example 145, 2-(2-(2-Acetyl-1,2,3,3a,4,6a-hexahydrocyclopenta[c]pyrrol-5-yl)-5-ethyl-6-(4-(5-hydroxy-6-methylpyrimidine-4-carbonyl)piperazin-1-yl)-7-oxo-[1,2,4]triazolo[1,5-a]pyrimidin-4(7H)-yl)-N-(2-chloro-4-(trifluoromethyl)phenyl)acetamide]		0.001 to 0.1 µM
CCc1c(N2CCN(C(=O)c3ncnc(C)c3O)CC2)c(=O)n2nc(C(C)C)nc2n1CC(=O)Nc1ccc(C(F)(F)F)cc1Cl [Example 5, N-(2-chloro-4-(trifluoromethyl)phenyl)-2-(5-ethyl-6-(4-(5-hydroxy-6-methylpyrimidine-4-carbonyl)piperazin-1-yl)-2-isopropyl-7-oxo-[1,2,4]triazolo[1,5-a]pyrimidin-4(7H)-yl)acetamide]		0.001 to 0.1 µM
CCc1c(N2CCN(C(=O)c3ncnc(C)c3O)CC2)c(=O)n2nc(-c3ccc4c(c3)C(=O)NC4)nc2n1CC(=O)Nc1ccc(C(F)(F)F)cc1Cl [Example 127, N-(2-chloro-4-(trifluoromethyl)phenyl)-2-(5-ethyl-6-(4-(5-hydroxy-6-methylpyrimidine-4-carbonyl)piperazin-1-yl)-7-oxo-2-(3-oxoisoindolin-5-yl)-[1,2,4]triazolo[1,5-a]pyrimidin-4(7H)-yl)acetamide]		0.001 to 0.1 µM
CCc1c(N2CCN(C(=O)c3ncnc(C)c3O)CC2)c(=O)n2nc(-c3ccc4c(c3)CCO4)cc2n1CC(=O)Nc1ccc(C(F)(F)F)cc1Cl [Example 82, N-(2-chloro-4-(trifluoromethyl)phenyl)-2-(2-(2,3-dihydrobenzofuran-5-yl)-5-ethyl-6-(4-(5-hydroxy-6-methylpyrimidine-4-carbonyl)piperazin-1-yl)-7-oxopyrazolo[1,5-a]pyrimidin-4(7H)-yl)acet amide]		0.001 to 0.1 µM
CCc1c(N2CCN(C(=O)c3ncnc(C)c3O)CC2)c(=O)n2nc(-c3ccc4ncnn4c3)nc2n1CC(=O)Nc1ccc(C(F)(F)F)cc1Cl [Example 135, 2-(2-([1,2,4]triazolo[1,5-a]pyridin-6-yl)-5-ethyl-6-(4-(5-hydroxy-6-methylpyrimidine-4-carbonyl)piperazin-1-yl)-7-oxo-[1,2,4]triazolo[1,5-a]pyrimidin-4(7H)-yl)-N-(2-chloro-4-(trifluoromethyl)phenyl)acetamide]		0.001 to 0.1 µM
[2H]C([2H])([2H])Sc1ccc(NC(=O)Cn2c(CC)c(N3CCN(C(=O)c4ncnc(C)c4O)CC3)c(=O)n3nc(C4=CC5CC5C4)nc23)cc1 (centres unmarked) [Example 181, 2-(2-(Bicyclo[3.1.0]hex-2-en-3-yl)-5-ethyl-6-(4-(5-hydroxy-6-methylpyrimidine-4-carbonyl)piperazin-1-yl)-7-oxo-[1,2,4]triazolo[1,5-a]pyrimidin-4(7H)-yl)-N-(4-((methyl-d3)thio)phenyl)acetamide]		0.001 to 0.1 µM
